Key:
Assay type in all cases: in vivo
[1] = system: wheat; test: wheat field test, crop selectivity, greenhouse spray at 4 leaf stage; conditions: 250 g/ha of the active substance; 4 weeks after treatment
Summary of the method: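 Compounds in acetone were mixed with methyl oleate emulsion, diluted with water and applied with a sprayer to greenhouse plants at the 4 leaf stage. Growth control, expressed as fresh weight control rate, was assessed after 4 weeks of further culture.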

[2] = system: corn gromwell; test: wheat field resistant broadleaf weed control, greenhouse spray at 4 leaf stage; set-up: key: Level 10: completely dead; Level 9: above 95% growth control rate; Level 8: above 90% growth control rate; Level 7: above 80% growth control rate; Level 6: above 70% growth control rate; Level 5: above 60% growth control rate; Level 4: above 50% growth control rate; Level 3: above 20% growth control rate; Level 2: 5%-20% growth control rate; Level 1: below 5% growth control rate; conditions: 250 g/ha of the active substance; 4 weeks after treatment; ALS inhibitor resistant
Description: (§1) The activity level standard of harmful plant destruction (i.e. growth control rate) is as follows:
(§2) The above described growth control rate is fresh weight control rate.
(§3) The seeds of alopecurus japonicas, flixweed, shepherd's purse, corn gromwell, chickweed, beckmannia syzigachne, and annual ryegrass and wheat seeds were put into a plastic pot loaded with soil, and then covered with 0.5-2 cm soil, the seeds were allowed to grow in good greenhouse environment. The test plants were treated at 4 leaf stage 2-3 weeks after sowing. The test compounds of the present invention were dissolved in acetone respectively, then added with methyl oleate emulsion and diluted by certain amount of water to certain concentration. The solution was sprayed to the plant with a sprayer. Then the plants were cultured for 4 weeks in greenhouse.

[3] = system: chickweed; test: as above; set-up: key: Level 10: completely dead; Level 9: above 95% growth control rate; Level 8: above 90% growth control rate; Level 7: above 80% growth control rate; Level 6: above 70% growth control rate; Level 5: above 60% growth control rate; Level 4: above 50% growth control rate; Level 3: above 20% growth control rate; Level 2: 5%-20% growth control rate; Level 1: below 5% growth control rate; conditions: 250 g/ha of the active substance; 4 weeks after treatment; ALS inhibitor resistant
Description: as §1, §2, §3

[4] = system: shepherd's purse; test: as above; set-up: key: Level 10: completely dead; Level 9: above 95% growth control rate; Level 8: above 90% growth control rate; Level 7: above 80% growth control rate; Level 6: above 70% growth control rate; Level 5: above 60% growth control rate; Level 4: above 50% growth control rate; Level 3: above 20% growth control rate; Level 2: 5%-20% growth control rate; Level 1: below 5% growth control rate; conditions: 250 g/ha of the active substance; 4 weeks after treatment; ALS inhibitor resistant
Description: as §1, §2, §3

[5] = system: flixweed; test: as above; set-up: key: Level 10: completely dead; Level 9: above 95% growth control rate; Level 8: above 90% growth control rate; Level 7: above 80% growth control rate; Level 6: above 70% growth control rate; Level 5: above 60% growth control rate; Level 4: above 50% growth control rate; Level 3: above 20% growth control rate; Level 2: 5%-20% growth control rate; Level 1: below 5% growth control rate; conditions: 250 g/ha of the active substance; 4 weeks after treatment; ALS inhibitor resistant
Description: as §1, §2, §3

[6] = system: rorippa indica; test: weed control effect in post-emergence stage (Table 1); set-up: key: Level 10: completely dead; Level 9: above 95% growth control rate; Level 8: above 90% growth control rate; Level 7: above 80% growth control rate; Level 6: above 70% growth control rate; Level 5: above 60% growth control rate; Level 4: above 50% growth control rate; Level 3: above 20% growth control rate; Level 2: 5%-20% growth control rate; Level 1: below 5% growth control rate; conditions: post-emergence spray at 4-5 leaf stage, 250 g/ha active ingredient with 450 kg/ha water, rated after 3 weeks in greenhouse
Summary of the method: (§4)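 Weeds and crops grown in soil-filled pots in a greenhouse were sprayed at the 4-5 leaf stage (2-3 weeks after sowing). Compounds were applied in acetone with tween 80, diluted in water. After 3 weeks' culture, growth control was scored as fresh weight control rate.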

[7] = system: Indian mallow; test: as above; set-up: key: Level 10: completely dead; Level 9: above 95% growth control rate; Level 8: above 90% growth control rate; Level 7: above 80% growth control rate; Level 6: above 70% growth control rate; Level 5: above 60% growth control rate; Level 4: above 50% growth control rate; Level 3: above 20% growth control rate; Level 2: 5%-20% growth control rate; Level 1: below 5% growth control rate; conditions: post-emergence spray at 4-5 leaf stage, 250 g/ha active ingredient with 450 kg/ha water, rated after 3 weeks in greenhouse
Summary of the method: as §4

[8] = system: bidens bipinnata; test: as above; set-up: key: Level 10: completely dead; Level 9: above 95% growth control rate; Level 8: above 90% growth control rate; Level 7: above 80% growth control rate; Level 6: above 70% growth control rate; Level 5: above 60% growth control rate; Level 4: above 50% growth control rate; Level 3: above 20% growth control rate; Level 2: 5%-20% growth control rate; Level 1: below 5% growth control rate; conditions: post-emergence spray at 4-5 leaf stage, 250 g/ha active ingredient with 450 kg/ha water, rated after 3 weeks in greenhouse
Summary of the method: as §4

[9] = system: crab grass; test: as above; set-up: key: Level 10: completely dead; Level 9: above 95% growth control rate; Level 8: above 90% growth control rate; Level 7: above 80% growth control rate; Level 6: above 70% growth control rate; Level 5: above 60% growth control rate; Level 4: above 50% growth control rate; Level 3: above 20% growth control rate; Level 2: 5%-20% growth control rate; Level 1: below 5% growth control rate; conditions: post-emergence spray at 4-5 leaf stage, 250 g/ha active ingredient with 450 kg/ha water, rated after 3 weeks in greenhouse
Summary of the method: as §4

[10] = system: foxtail; test: as above; set-up: key: Level 10: completely dead; Level 9: above 95% growth control rate; Level 8: above 90% growth control rate; Level 7: above 80% growth control rate; Level 6: above 70% growth control rate; Level 5: above 60% growth control rate; Level 4: above 50% growth control rate; Level 3: above 20% growth control rate; Level 2: 5%-20% growth control rate; Level 1: below 5% growth control rate; conditions: post-emergence spray at 4-5 leaf stage, 250 g/ha active ingredient with 450 kg/ha water, rated after 3 weeks in greenhouse
Summary of the method: as §4

[11] = system: echinochloa; test: as above; set-up: key: Level 10: completely dead; Level 9: above 95% growth control rate; Level 8: above 90% growth control rate; Level 7: above 80% growth control rate; Level 6: above 70% growth control rate; Level 5: above 60% growth control rate; Level 4: above 50% growth control rate; Level 3: above 20% growth control rate; Level 2: 5%-20% growth control rate; Level 1: below 5% growth control rate; conditions: post-emergence spray at 4-5 leaf stage, 250 g/ha active ingredient with 450 kg/ha water, rated after 3 weeks in greenhouse
Summary of the method: as §4

[12] = system: wheat; test: post-emergence stage experiment, crop (Table 1); conditions: post-emergence spray at 4-5 leaf stage, 250 g/ha active ingredient with 450 kg/ha water, rated after 3 weeks in greenhouse
Summary of the method: as §4

[13] = system: corn; test: post-emergence stage experiment, crop (Table 1); conditions: post-emergence spray at 4-5 leaf stage, 250 g/ha active ingredient with 450 kg/ha water, rated after 3 weeks in greenhouse
Summary of the method: as §4

[14] = system: rice; test: post-emergence stage experiment, crop (Table 1); set-up: key: Level 10: completely dead; Level 9: above 95% growth control rate; Level 8: above 90% growth control rate; Level 7: above 80% growth control rate; Level 6: above 70% growth control rate; Level 5: above 60% growth control rate; Level 4: above 50% growth control rate; Level 3: above 20% growth control rate; Level 2: 5%-20% growth control rate; Level 1: below 5% growth control rate; conditions: post-emergence spray at 4-5 leaf stage, 250 g/ha active ingredient with 450 kg/ha water, rated after 3 weeks in greenhouse
Summary of the method: as §4

Compound | Wheat (activity level, crop damage) [1] | corn gromwell weed controlling effect (activity level) [2] | chickweed weed controlling effect (activity level) [3] | shepherd's purse weed controlling effect (activity level) [4] | flixweed weed controlling effect (activity level) [5] | weed control effect, Rorippa indica (level) [6] | weed control effect, Indian mallow (level) [7] | weed control effect, Bidens bipinnata (level) [8] | weed control effect, Crab grass (level) [9] | weed control effect, Green foxtail (level) [10] | weed control effect, Echinochloa (level) [11] | effect on crop, Wheat (level) [12] | effect on crop, Corn (level) [13] | effect on crop, Rice (level) [14]
CCc1nn(C)c(OC(=O)c2cn(C)nc2C)c1C(=O)c1ccc(C(F)(F)F)c(N2CCCCCC2=O)c1Cl [Compound 121] | 1 (Level 1: below 5% growth control rate) | 10 | 10 | 10 | 10 | 10 | 5 (Level 5: above 60% growth control rate) | 3 (Level 3: above 20% growth control rate) | 4 (Level 4: above 50% growth control rate) | 9 (Level 9: above 95% growth control rate) | 10 | 1 (Level 1: below 5% growth control rate) | 1 (Level 1: below 5% growth control rate) | 6 (Level 6: above 70% growth control rate)
CCn1nc(C)c(C(=O)c2ccc(C(F)(F)F)c(-n3cc(C)cn3)c2Cl)c1O [Compound 138] | 1 (Level 1: below 5% growth control rate) | 10 | 10 | 10 | 10 | 10 | 0 | 5 (Level 5: above 60% growth control rate) | 5 (Level 5: above 60% growth control rate) | 10 | 10 | 1 (Level 1: below 5% growth control rate) | 2 (Level 2: 5%-20% growth control rate) | 7 (Level 7: above 80% growth control rate)
Cc1cnn(-c2c(C(F)(F)F)ccc(C(=O)c3cnn(C)c3OC(=O)c3cn(C)nc3C)c2Cl)c1 [Compound 082] | 0 | 10 | 10 | 10 | 10 | 10 | 9 (Level 9: above 95% growth control rate) | 4 (Level 4: above 50% growth control rate) | 6 (Level 6: above 70% growth control rate) | 10 | 10 | 0 | 3 (Level 3: above 20% growth control rate) | 3 (Level 3: above 20% growth control rate)
CCc1nn(C)c(O)c1C(=O)c1ccc(C(F)(F)F)c(-n2cc(C)cn2)c1Cl [Compound 140] | 0 | 10 | 10 | 10 | 10 | 10 | 10 | 8 (Level 8: above 90% growth control rate) | 1 (Level 1: below 5% growth control rate) | 7 (Level 7: above 80% growth control rate) | 8 (Level 8: above 90% growth control rate) | 0 | 0 | 10
CCn1ncc(C(=O)c2ccc(C(F)(F)F)c(N3CCCC3=O)c2Cl)c1O [Compound 096] | 1 (Level 1: below 5% growth control rate) | 10 | 10 | 10 | 10 | 10 | 10 | 10 | 5 (Level 5: above 60% growth control rate) | 10 | 10 | 1 (Level 1: below 5% growth control rate) | 0 | 9 (Level 9: above 95% growth control rate)
CCOc1c(C(=O)Oc2c(C(=O)c3ccc(C(F)(F)F)c(N4CCCCCC4=O)c3Cl)c(C3CC3)nn2C)cnn1C [Compound 060] | 0 | 10 | 10 | 10 | 10 | 10 | 10 | 7 (Level 7: above 80% growth control rate) | 3 (Level 3: above 20% growth control rate) | 1 (Level 1: below 5% growth control rate) | 5 (Level 5: above 60% growth control rate) | 0 | 0 | 1 (Level 1: below 5% growth control rate)
